This is an account of results in patent publication US10577378B2, “EIF4A-inhibiting compounds and methods related thereto” (eFFECTOR Therapeutics, Inc., priority 2015, dated 2020).

This experiment relates to MDA-MB-231 human breast cancer cells. In words: Cell proliferation assay (CellTiter-Glo, 72 hours treatment). Type of experiment: cell-based. To be noted: Homo sapiens; MDA-MB-231 cells, 72 hours at 37° C., CellTiter-Glo; read-out: MDA-MB-231 cell proliferation assay (IC50). An outline of the steps:
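IC50 categories: under 100 nM +++, 100–1000 nM ++, above 1000 nM +, derived by sigmoidal curve fitting of CellTiter-Glo luminescence. Cells plated at 2,500 per well, dosed the following day and exposed 72 h at 37 °C versus DMSO control.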
In general terms: Cellular ATP, detected with luciferase, serves as a proxy for viable cell number.

`Cc1ccc(S(=O)(=O)NN=C2C[C@@H](c3ccccc3)[C@]3(c4ccc(Br)cc4)Oc4cc(Cl)cnc4[C@]23O)cc1` (racemic) [132F, Rac-N′-((5aR,6S,8aS)-5a-(4-bromophenyl)-3-chloro-8a-hydroxy-6-phenyl-5a,6,7,8a-tetrahydro-8H-cyclopenta[4,5]furo[3,2-b]pyridin-8-ylidene)-4-methylbenzenesulfonohydrazide]: the IC50 is greater than 1000 nM. Take `CN(C)C(=O)[C@H]1[C@@H](O)[C@@]2(O)c3ncc(Cl)cc3O[C@@]2(c2ccc(C(F)F)cc2)[C@@H]1c1ccccc1` (single isomer, unassigned) [16F]: the IC50 was 100 to 1000 nM. In the case of `COc1cncc2c1[C@]1(O)[C@H](O)[C@H](CN3CCN(C)CC3)[C@@H](c3ccccc3)[C@]1(c1ccc(C#N)cc1)O2` (racemic) [68F, Rac-4-((4bS,5R,6S,7S,7aR)-4b,5-dihydroxy-4-methoxy-6-((4-methylpiperazin-1-yl)methyl)-7-phenyl-4b,5,6,7-tetrahydro-7aH-cyclopenta[4,5]furo[2,3-c]pyridin-7a-yl)benzonitrile], the IC50 fell in the range of 100 to 1000 nM. On to `N#Cc1ccc([C@@]23Oc4cc(C#N)cnc4[C@]2(O)[C@@H](CN)C[C@H]3c2ccccc2)cc1` (racemic) [176F, rac-(5aR,6S,8R,8aR)-8-(aminomethyl)-5a-(4-cyanophenyl)-8a-hydroxy-6-phenyl-5a,7,8,8a-tetrahydro-6H-cyclopenta[4,5]furo[3,2-b]pyridine-3-carbonitrile], for which the IC50 fell in the range of 100 to 1000 nM. For `COc1nc(C#N)cc2c1[C@]1(O)[C@H](O)[C@H](CN3CCCC3)[C@@H](c3ccccc3)[C@]1(c1ccc(Br)cc1)O2` (racemic) [158Fa, Rac-(5aR,6S,7S,8R,8aS)-5a-(4-bromophenyl)-8,8a-dihydroxy-1-methoxy-6-phenyl-7-(pyrrolidin-1-ylmethyl)-5a,7,8,8a-tetrahydro-6H-cyclopenta[4,5]furo[3,2-c]pyridine-3-carbonitrile], the IC50 was less than 100 nM. For the compound `COc1ccc([C@@]23Oc4cc(OC)ccc4[C@]2(N)[C@H](O)[C@H](C(=O)N(C)C)[C@H]3c2ccccc2)cc1` (racemic) [44F, Rac-(1R,2R,3S,3aR,8bS)-8b-amino-1-hydroxy-6-methoxy-3a-(4-methoxyphenyl)-N,N-dimethyl-3-phenyl-2,3,3a,8b-tetrahydro-1H-cyclopenta[b]benzofuran-2-carboxamide], the IC50 was greater than 1000 nM. Regarding `COc1nc(C#N)cc2c1[C@]1(O)[C@H](O)[C@H](CN(C)C)[C@@H](c3ccccc3)[C@]1(c1ccc(C(F)F)cc1)O2` (racemic) [146F, Rac-(5aR,6S,7S,8R,8aS)-5a-(4-(difluoromethyl)phenyl)-7-((dimethylamino)methyl)-8,8a-dihydroxy-1-methoxy-6-phenyl-5a,7,8,8a-tetrahydro-6H-cyclopenta[4,5]furo[3,2-c]pyridine-3-carbonitrile], the IC50 was less than 100 nM. Take `COc1nc(C#N)cc2c1[C@]1(O)[C@H](O)[C@H](CN3CCCC3)[C@@H](c3ccccc3)[C@]1(c1ccc(C#N)cc1)O2` (racemic) [158Fc, Rac-(5aR,6S,7S,8R,8aS)-5a-(4-cyanophenyl)-8,8a-dihydroxy-1-methoxy-6-phenyl-7-(pyrrolidin-1-ylmethyl)-5a,7,8,8a-tetrahydro-6H-cyclopenta[4,5]furo[3,2-c]pyridine-3-carbonitrile]: the IC50 is less than 100 nM. As to `COC(=O)[C@H]1[C@@H](O)[C@@]2(F)c3ncc(Cl)cc3O[C@@]2(c2ccc(Br)cc2)[C@@H]1c1ccccc1` (racemic) [43F, Rac-methyl (5aR,6S,7R,8R,8aS)-5a-(4-bromophenyl)-3-chloro-8a-fluoro-8-hydroxy-6-phenyl-5a,7,8,8a-tetrahydro-6H-cyclopenta[4,5]furo[3,2-b]pyridine-7-carboxylate], the IC50 is greater than 1000 nM.

For the compound `N#Cc1ccc([C@@]23Oc4cc(Cl)cnc4[C@]2(O)[C@@H](CO)C[C@H]3c2ccccc2)cc1` (racemic) [167F, Rac-4-((5aR,6S,8R,8aR)-3-chloro-8a-hydroxy-8-(hydroxymethyl)-6-phenyl-6,7,8,8a-tetrahydro-5aH-cyclopenta[4,5]furo[3,2-b]pyridin-5a-yl)benzonitrile], the IC50 was 100 to 1000 nM.

As to `COc1cncc2c1[C@]1(O)[C@H](O)[C@H](CN(C)Cc3ccnn3C)[C@@H](c3ccccc3)[C@]1(c1ccc(C#N)cc1)O2` (single isomer, unassigned) [250F], the IC50 is greater than 1000 nM. On to `COc1nc(Cl)cc2c1[C@]1(O)[C@H](O)[C@H](CN3CCC34CC4(F)F)[C@@H](c3ccccc3)[C@]1(c1ccc(C#N)cc1)O2` (mixture of isomers) [222F, Rac-4-((5aR,6S,7S,8R,8aS)-3-chloro-7-((1,1-difluoro-4-azaspiro[2.3]hexan-4-yl)methyl)-8,8a-dihydroxy-1-methoxy-6-phenyl-6,7,8,8a-tetrahydro-5aH-cyclopenta[4,5]furo[3,2-c]pyridin-5a-yl)benzonitrile], for which the IC50 is less than 100 nM. For the compound `C#CC1C[C@@H](c2ccccc2)[C@]2(c3ccc(Br)cc3)Oc3cc(Cl)cnc3[C@]12O` (mixture of isomers) [48F, Rac-(5aR,6S,8aR)-5a-(4-bromophenyl)-3-chloro-8-ethynyl-6-phenyl-5a,6,7,8-tetrahydro-8aH-cyclopenta[4,5]furo[3,2-b]pyridin-8a-ol], the IC50 was greater than 1000 nM. For `CN(C)C(=O)[C@@]12C[C@@H]1[C@@]1(O)c3ncc(Cl)cc3O[C@@]1(c1ccc(C#N)cc1)[C@@H]2c1ccccc1` (racemic) [31F, Rac-(5aR,6R,6aS,7aS,7bR)-3-chloro-5a-(4-cyanophenyl)-7b-hydroxy-N,N-dimethyl-6-phenyl-5a,7,7a,7b-tetrahydrocyclopropa[4′,5′]cyclopenta[1′,2′:4,5]furo[3,2-b]pyridine-6a(6H)-carboxamide], the IC50 is greater than 1000 nM.

On to `COc1nccc2c1[C@]1(O)[C@H](O)[C@H](CN(C)C)[C@@H](c3ccccc3)[C@]1(c1ccc(C(F)(F)F)cc1)O2` (racemic) [149F, Rac-(5aR,6S,7S,8R,8aS)-7-((dimethylamino)methyl)-1-methoxy-6-phenyl-5a-(4-(trifluoromethyl)phenyl)-5a,6,7,8-tetrahydro-8aH-cyclopenta[4,5]furo[3,2-c]pyridine-8,8a-diol], for which the IC50 is greater than 1000 nM.

As to `N#Cc1ccc([C@@]23Oc4cc(Cl)cnc4[C@]2(O)[C@H](O)[C@H](Sc2ccccn2)[C@H]3c2ccccc2)cc1` (racemic) [189F, Rac-4-((5aR,6S,7R,8S,8aS)-3-chloro-8,8a-dihydroxy-6-phenyl-7-(pyridin-2-ylthio)-6,7,8,8a-tetrahydro-5aH-cyclopenta[4,5]furo[3,2-b]pyridin-5a-yl)benzonitrile], the IC50 lay in the range of 100 to 1000 nM.

Take `COc1ccc(Cn2cc3c(n2)[C@]2(O)[C@H](O)[C@H](C(=O)N(C)C)[C@@H](c4ccccc4)[C@]2(c2ccc(C#N)cc2)O3)cc1` (racemic) [99F, Rac-(4aR,5S,6R,7R,7aS)-4a-(4-cyanophenyl)-7,7a-dihydroxy-2-(4-methoxybenzyl)-N,N-dimethyl-5-phenyl-2,4a,5,6,7,7a-hexahydrocyclopenta[4,5]furo[3,2-c]pyrazole-6-carboxamide]: the IC50 was greater than 1000 nM.
